Measured values as given in patent US20210343368A1, “Method for Engineering Synthetic Cis-Regulatory DNA” (Max-Delbrück-Centrum für Molekulare Medizin in der …, priority 2018, published 2021).

What was measured:
Type in all cases: cell-based, human
[1] = test system: MES-hGICs-MGT #1low and PN-hGICs-MGT #1low cells; assay: Phenotypic screening of sLCR response to selected factors, FACS; conditions: 48 hours after stimulation
Description: NBE-propagated hGICs were stimulated with selected factors (cytokines, growth factors, compounds) and FACS analyzed 48 hours after stimulation (FIG. 13b). […] (FIG. 13b-c and 17). […] Indeed, TNFα was previously reported as a prominent MES-GBM signaling pathway and inducer of a PN-to-MES transition.

MES-hGICs-MGT #1low [2] = assay: Medium-throughput cytokine screening, bottom reading fluorescence; conditions: up to 48 hours from stimulation
Description: Phenotypic screening: Tumor cells were propagated as described above until the screening. Then we seeded 15′000/50 μl/well in 384 well plates (Corning), in Gibco FluoroBrite DMEM medium supplemented with the appropriate growth factors. Cells were dispensed as 50 μl suspension into each well using the SPARK20M Injector system (50 μl injection volume; 100 μl/s injection speed). For non-adherent cells (e.g. GICs), cells were further centrifuge at 1500 rpm for 1 h30 min at 37° C. Bottom reading fluorescence was scanned using a SPARM 20M TECAN plate reader at 37° C. in a 5% CO2-95% air (3% for GICs) in a humidified cassette, with the following settings for mVenus: Monochromator, Ex 505 nm±20 nm, Em 535 nm±7.5 nm, manual gain:198, flashes: 35, Integration time:40 μs. In independent replicas, cell viability was measured with 0.02% AlamarBlue solution in FluoroBrite medium with the following settings: Fluorescence Top reading. Monochromator, Ex 565 nm±10 nm, Em 592 nm±10 nm, manual gain: 88, flashes: 30, Integration time:40 μs. […]
Human GICs and GSCs are consistently propagated under “NBE” conditions, which stands for serum-free Neurobasal media supplemented with basic FGF and EGF^25. […] Next, GICs were stimulated with individual cytokines in biological and technical replica followed by continuous fluorescence bottom reading in a pre-defined time course experiment. […]

PN-hGICs-MGT #1low = assay: FACS of MGT #1 response to TNFα; conditions: equal basal MGT #1 levels by FACS sorting
Description: (§1) FACS analysis: Analysis was performed with FlowJo_V10.
(§2) FACS sorting: Transduced hGICs were harvested into single cell suspensions and resuspended into cold RHB-A complete and filtered into FACS tubes. Sorting was conducted using BD FACSAria III or Fusion. The appropriate laser-filter combinations were chosen depending on the fluorophores being sorted for. Typically, to remove dead cells, events were first gated on the basis of shape and granularity (FSC-A vs. SSC-A) and doublets were excluded (FSC-A vs. FSC-H). Positive gates were established on PGK-driven and constitutively expressed H2B-CFP as sorting reporter, to sort for populations with low to medium intensity of sLCR-dependent fluorophore expression.
(§3) Next, near-isogenic and characterized MES-hGICs and PN-hGICs were transduced with MGT #1 lentiviral particles. PN-hGICs bear a combination of IDH1 and TP53 point mutations, which is only found in PN GBM, whereas MES-hGICs have triple knockdown of TP53, PTEN and NF1, featuring a MES GBM background. […] As TNFa is considered a prominent MES-GBM signaling pathway, and can induce a PN-to-MES transition^20, we next tested whether MGT #1 is faithfully reproducing a MES GBM signaling by exposing either MES-hGICs-MGT #1^low and PN-hGICs-MGT #1^low W to TNFα. […] Reassuringly, TNFα induced a fluorescence increase in both cell types as compared to each parental control.

MES-hGICs-MGT #1low [3] = assay: FACS of MGT #1 response to TNFα; conditions: equal basal MGT #1 levels by FACS sorting
Description: as §1, §2, §3

Substance: TNFα
- sLCR (MGT #1-2) response normalized to naive hGICs [1]: MES-GBM regulators
- MGT #1 / MGT #2 fluorescence normalized to naive GICs (MES-hGICs-MGT #1low [2]): turned into MES-hGICs-MGT #1^high
- MGT #1 expression level after TNFα (PN-hGICs-MGT #1low): only reached PN-hGICs-MGT #1^med levels
- MGT #1 expression level after TNFα (MES-hGICs-MGT #1low [3]): turned into MES-hGICs-MGT #1^high
